Reference: the supplement of paper PMC10307832

Each cell line was assayed with COc1cc2nc(N3CCCN(C)CC3)nc(NC3CCN(Cc4ccccc4)CC3)c2cc1OC + Cc1nc(Nc2ncc(C(=O)Nc3c(C)cccc3Cl)s2)cc(N2CCN(CCO)CC2)n1 [Dasatinib] (partner 0.075 µM) (assay: relative viability (nuclei count vs DMSO), 5 days (fraction); higher = more cells survive). Details: first compound 0.2 µM.
Outline: (§1)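 Five library-drug doses in √10 steps were combined with a fixed anchor-drug dose, or a single drug was given alone, by pin tool to lung cancer cell lines in 1536-well plates the day after seeding. Nuclei were stained and counted after 5 days. Relative viability is the nuclei count in treated wells over that in vehicle wells, taken as the median of duplicate plates.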
Work on NCI-H2085 yielded a relative viability of 0.217. HCC-366 showed a relative viability of 0.697. NCI-H1666 gave a relative viability of 0.819. Cell Line NCI-H596 has a relative viability of 0.659. LK-2 showed a relative viability of 0.35. NCI-H2087 was tested, and the relative viability was 0.7. SK-MES-1 was tested, and the relative viability was 0.41. For H3255, the relative viability was 0.401. Work on COR-L23 yielded a relative viability of 0.57. COR-L 105 showed a relative viability of 0.338. LOU-NH91 showed a relative viability of 0.525. ChaGo-K-1 showed a relative viability of 0.514. For NCI-H2170, the relative viability was 0.658. NCI-H2405 was tested, and the relative viability was 0.213. With HOP-62 the relative viability was 0.748. Work on NCI-H522 yielded a relative viability of 0.963. Work on LU99A yielded a relative viability of 0.588. BEN showed a relative viability of 0.384. Work on HARA yielded a relative viability of 0.275. In the case of SW 900, the relative viability is reported as 0.411. With HCC-78 the relative viability was 0.486. With NCI-H322M the relative viability was 0.258. LCLC-97TM1 gave a relative viability of 0.857. For NCI-H2009, the relative viability was 0.308. In the case of A-427, the relative viability is reported as 0.64. For NCI-H1792, the relative viability was 0.89. With NCI-H1563 the relative viability was 0.469.

Same assay, conditions: first compound 0.6325 µM
With NCI-H2342 the relative viability was 0.295. In the case of NCI-H1623, the relative viability is reported as 0.604. For NCI-H727, the relative viability was 0.461. With NCI-H1650 the relative viability was 0.367. NCI-H1993 was tested, and the relative viability was 0.657. Work on SW 1573 yielded a relative viability of 0.454. With NCI-H838 the relative viability was 0.319. Cell Line LCLC-103H has a relative viability of 0.344. In the case of NCI-H520, the relative viability is reported as 0.228. For NCI-H2126, the relative viability was 0.678. EMC-BAC-2 was tested, and the relative viability was 0.305. NCI-H2085 gave a relative viability of 0.306. With HCC-366 the relative viability was 0.599. Cell Line NCI-H1666 has a relative viability of 0.847. In the case of NCI-H596, the relative viability is reported as 0.652. LK-2 was tested, and the relative viability was 0.341. NCI-H2087 showed a relative viability of 0.75. For SK-MES-1, the relative viability was 0.374. H3255 showed a relative viability of 0.5. With COR-L23 the relative viability was 0.476. With COR-L 105 the relative viability was 0.472. LOU-NH91 was tested, and the relative viability was 0.686. ChaGo-K-1 showed a relative viability of 0.617. Cell Line NCI-H2170 has a relative viability of 0.594. In the case of NCI-H2405, the relative viability is reported as 0.214. HOP-62 showed a relative viability of 0.62. With NCI-H522 the relative viability was 1.15. Work on LU99A yielded a relative viability of 0.552. BEN showed a relative viability of 0.389. HARA was tested, and the relative viability was 0.271. Cell Line SW 900 has a relative viability of 0.578. HCC-78 gave a relative viability of 0.557. NCI-H322M gave a relative viability of 0.281. Cell Line LCLC-97TM1 has a relative viability of 0.701. For NCI-H2009, the relative viability was 0.324. With A-427 the relative viability was 0.707. Cell Line NCI-H1792 has a relative viability of 0.781. NCI-H1563 was tested, and the relative viability was 0.467.

Same assay, conditions: first compound 2 µM
For NCI-H2342, the relative viability was 0.311. Cell Line NCI-H1623 has a relative viability of 0.507. NCI-H727 gave a relative viability of 0.452. For NCI-H1650, the relative viability was 0.327. With NCI-H1993 the relative viability was 0.657. With SW 1573 the relative viability was 0.665. NCI-H838 showed a relative viability of 0.33. Cell Line LCLC-103H has a relative viability of 0.532. Cell Line NCI-H520 has a relative viability of 0.252. Work on NCI-H2126 yielded a relative viability of 0.597. EMC-BAC-2 was tested, and the relative viability was 0.327. Work on NCI-H2085 yielded a relative viability of 0.262. In the case of HCC-366, the relative viability is reported as 0.504. Work on NCI-H1666 yielded a relative viability of 0.788. NCI-H596 showed a relative viability of 0.638. In the case of LK-2, the relative viability is reported as 0.261. Work on NCI-H2087 yielded a relative viability of 0.941. SK-MES-1 gave a relative viability of 0.386. In the case of H3255, the relative viability is reported as 0.448. For COR-L23, the relative viability was 0.559. COR-L 105 showed a relative viability of 0.328. LOU-NH91 was tested, and the relative viability was 0.439. With ChaGo-K-1 the relative viability was 0.592. Work on NCI-H2170 yielded a relative viability of 0.638. In the case of NCI-H2405, the relative viability is reported as 0.2. HOP-62 gave a relative viability of 0.711. Work on NCI-H522 yielded a relative viability of 1.02. LU99A gave a relative viability of 0.47. BEN was tested, and the relative viability was 0.36. HARA showed a relative viability of 0.255. Work on SW 900 yielded a relative viability of 0.654. Cell Line HCC-78 has a relative viability of 0.362. NCI-H322M showed a relative viability of 0.274. For LCLC-97TM1, the relative viability was 0.877. For NCI-H2009, the relative viability was 0.493. In the case of A-427, the relative viability is reported as 0.749. NCI-H1792 showed a relative viability of 0.824. With NCI-H1563 the relative viability was 0.441.

Same assay, conditions: first compound 6.325 µM
With NCI-H2342 the relative viability was 0.312. For NCI-H1623, the relative viability was 0.524. For NCI-H727, the relative viability was 0.322. With NCI-H1650 the relative viability was 0.233. For NCI-H1993, the relative viability was 0.574. Cell Line SW 1573 has a relative viability of 0.295. Cell Line NCI-H838 has a relative viability of 0.237. In the case of LCLC-103H, the relative viability is reported as 0.479. NCI-H520 showed a relative viability of 0.187. In the case of NCI-H2126, the relative viability is reported as 0.502. EMC-BAC-2 gave a relative viability of 0.371. With NCI-H2085 the relative viability was 0.206. HCC-366 showed a relative viability of 0.571. Cell Line NCI-H1666 has a relative viability of 0.718. NCI-H596 showed a relative viability of 0.654. LK-2 gave a relative viability of 0.324. In the case of NCI-H2087, the relative viability is reported as 0.617. For SK-MES-1, the relative viability was 0.171. H3255 gave a relative viability of 0.342. COR-L23 gave a relative viability of 0.519. COR-L 105 showed a relative viability of 0.25. Cell Line LOU-NH91 has a relative viability of 0.59. Work on ChaGo-K-1 yielded a relative viability of 0.584. Work on NCI-H2170 yielded a relative viability of 0.583. Cell Line NCI-H2405 has a relative viability of 0.202. HOP-62 showed a relative viability of 0.65. Work on NCI-H522 yielded a relative viability of 0.92. In the case of LU99A, the relative viability is reported as 0.433. BEN was tested, and the relative viability was 0.351. HARA gave a relative viability of 0.266. Work on SW 900 yielded a relative viability of 0.498. Work on HCC-78 yielded a relative viability of 0.421. NCI-H322M was tested, and the relative viability was 0.26. LCLC-97TM1 was tested, and the relative viability was 0.915. With NCI-H2009 the relative viability was 0.296. In the case of A-427, the relative viability is reported as 0.651. NCI-H1792 was tested, and the relative viability was 0.816. Work on NCI-H1563 yielded a relative viability of 0.421.

Each cell line was assayed with COc1cc2nc(N3CCCN(C)CC3)nc(NC3CCN(Cc4ccccc4)CC3)c2cc1OC + O=C(CCCCCCC(=O)Nc1ccccc1)NO [Vorinostat] (partner 1 µM) in the same assay as above. Details: first compound 0.2 µM.
Outline: as §1
NCI-H2342 was tested, and the relative viability was 0.638. NCI-H727 was tested, and the relative viability was 1.27. In the case of NCI-H1650, the relative viability is reported as 0.66. For NCI-H1993, the relative viability was 0.778. SW 1573 gave a relative viability of 0.704. NCI-H838 gave a relative viability of 0.772. LCLC-103H showed a relative viability of 0.776. NCI-H520 showed a relative viability of 0.77. NCI-H2126 was tested, and the relative viability was 0.8. In the case of EMC-BAC-2, the relative viability is reported as 0.431. With NCI-H2085 the relative viability was 0.799. Cell Line HCC-366 has a relative viability of 0.332. NCI-H1666 showed a relative viability of 1.08. In the case of NCI-H596, the relative viability is reported as 0.623. LK-2 was tested, and the relative viability was 0.302. With NCI-H2087 the relative viability was 0.806. Cell Line SK-MES-1 has a relative viability of 1.02. For H3255, the relative viability was 0.77.
